# From patent US20240382438A1, “Calcium Channel Blockers and Methods Thereof” (University of Maryland, Eastern Shore, priority 2023, published 2024)
# “Also recorded” adds a separate entry of the source.
# Key:
# [1] = system: LNCaP prostate cancer cells; assay: XTT cell viability assay; format: cell-based; conditions: 50 μM, 48 hours
# From the text: FIG. 15. Effect of RHB121, RHB62, and RHB95 on the cell viability of LNCaP prostate cancer cells. […] Cell viability was expressed as a percent of control LNCaP cells that received no treatment. Control groups were arbitrarily assigned a 100% viability value.
# To assess the effect of RHB62, RHB95, and RHB121 on cell viability, the XTT assay was used.
# human Cav3.2 = molecular target: T1, human Cav3.2 (Homo sapiens, UniProt O95180); assay: Whole-cell patch clamp of T-type Ca2+ currents in Cav3.2-stable transfected HEK 293 cells; format: cell-based; conditions: for Effect on whole cell capacitance / Effect on T-type Ca2+ current density: 50 μM; for Effect on T-type Ca2+ current density: vs non-treated cells
# T1 construct: host or cells: HEK 293
# T1 sequence (O95180 whole entry): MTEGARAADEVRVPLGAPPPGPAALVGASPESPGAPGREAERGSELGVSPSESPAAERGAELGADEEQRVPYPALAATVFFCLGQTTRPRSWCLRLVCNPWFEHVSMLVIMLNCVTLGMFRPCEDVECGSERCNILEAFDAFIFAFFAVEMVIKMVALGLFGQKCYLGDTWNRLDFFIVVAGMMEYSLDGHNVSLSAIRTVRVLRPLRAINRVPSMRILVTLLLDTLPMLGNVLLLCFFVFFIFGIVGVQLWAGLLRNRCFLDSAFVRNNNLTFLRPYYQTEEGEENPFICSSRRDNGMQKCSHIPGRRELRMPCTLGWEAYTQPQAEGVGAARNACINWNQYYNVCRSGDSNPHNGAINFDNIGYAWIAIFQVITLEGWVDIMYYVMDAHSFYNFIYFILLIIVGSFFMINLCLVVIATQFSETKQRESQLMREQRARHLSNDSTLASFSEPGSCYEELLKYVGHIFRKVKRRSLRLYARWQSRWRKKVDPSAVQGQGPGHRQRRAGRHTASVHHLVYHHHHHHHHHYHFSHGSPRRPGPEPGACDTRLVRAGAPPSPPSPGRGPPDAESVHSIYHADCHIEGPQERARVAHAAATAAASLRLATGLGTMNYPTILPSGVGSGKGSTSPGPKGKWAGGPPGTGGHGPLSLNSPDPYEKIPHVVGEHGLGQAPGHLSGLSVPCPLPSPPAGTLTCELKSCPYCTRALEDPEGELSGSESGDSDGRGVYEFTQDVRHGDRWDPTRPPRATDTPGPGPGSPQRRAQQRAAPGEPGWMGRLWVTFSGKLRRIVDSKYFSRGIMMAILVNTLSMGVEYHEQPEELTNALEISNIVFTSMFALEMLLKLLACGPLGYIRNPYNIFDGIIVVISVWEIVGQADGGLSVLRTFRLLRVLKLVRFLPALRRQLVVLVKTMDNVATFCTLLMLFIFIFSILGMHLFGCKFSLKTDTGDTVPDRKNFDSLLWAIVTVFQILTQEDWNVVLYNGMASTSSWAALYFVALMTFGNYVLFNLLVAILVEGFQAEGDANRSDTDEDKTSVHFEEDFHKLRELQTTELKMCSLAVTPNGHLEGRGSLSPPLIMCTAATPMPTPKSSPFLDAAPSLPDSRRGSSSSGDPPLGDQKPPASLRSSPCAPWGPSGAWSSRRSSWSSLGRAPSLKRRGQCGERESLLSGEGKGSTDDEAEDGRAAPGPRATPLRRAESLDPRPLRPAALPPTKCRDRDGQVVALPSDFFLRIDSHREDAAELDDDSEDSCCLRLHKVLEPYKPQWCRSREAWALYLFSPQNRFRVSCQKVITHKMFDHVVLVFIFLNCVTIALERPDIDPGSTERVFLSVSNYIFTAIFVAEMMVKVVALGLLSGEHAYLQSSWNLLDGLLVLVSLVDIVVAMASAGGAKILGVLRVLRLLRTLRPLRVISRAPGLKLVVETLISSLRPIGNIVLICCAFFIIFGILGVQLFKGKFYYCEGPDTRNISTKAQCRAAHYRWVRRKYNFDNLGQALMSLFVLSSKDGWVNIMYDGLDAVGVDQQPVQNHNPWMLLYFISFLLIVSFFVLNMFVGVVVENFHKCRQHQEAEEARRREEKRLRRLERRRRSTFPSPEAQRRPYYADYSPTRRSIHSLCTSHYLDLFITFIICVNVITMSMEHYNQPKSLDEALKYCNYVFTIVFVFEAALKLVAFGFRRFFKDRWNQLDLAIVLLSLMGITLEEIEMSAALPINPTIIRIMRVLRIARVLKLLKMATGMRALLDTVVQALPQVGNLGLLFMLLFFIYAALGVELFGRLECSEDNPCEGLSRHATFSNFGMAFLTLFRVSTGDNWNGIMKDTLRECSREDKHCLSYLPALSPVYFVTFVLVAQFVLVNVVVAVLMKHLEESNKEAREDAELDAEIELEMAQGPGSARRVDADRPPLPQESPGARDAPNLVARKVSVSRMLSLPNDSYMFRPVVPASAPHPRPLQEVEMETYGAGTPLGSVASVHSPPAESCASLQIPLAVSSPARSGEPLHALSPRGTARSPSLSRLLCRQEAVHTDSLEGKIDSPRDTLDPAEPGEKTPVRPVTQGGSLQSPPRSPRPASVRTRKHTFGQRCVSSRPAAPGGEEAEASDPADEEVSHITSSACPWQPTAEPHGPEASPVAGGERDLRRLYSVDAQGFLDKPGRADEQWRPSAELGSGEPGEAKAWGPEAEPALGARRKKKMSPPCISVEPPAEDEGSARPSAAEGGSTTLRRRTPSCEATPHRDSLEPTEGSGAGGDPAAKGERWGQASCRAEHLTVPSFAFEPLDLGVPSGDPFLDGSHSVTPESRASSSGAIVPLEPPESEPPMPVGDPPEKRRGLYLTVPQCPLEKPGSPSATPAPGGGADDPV
# Procedure: Certain exemplary embodiments have undergone target identification studies to discover a better officious T-type calcium blocker. The fourteen trifluoromethylated N-benzamide enaminone compounds were synthesized, purified, and structure confirmed using gas chromatography/mass spectroscopy, nuclear magnetic resonance, and elemental analysis. Preliminary in vitro whole cell patch clamp experiments were performed to assess the inhibitory effects of several target analogs on voltage-activated calcium currents in human embryonic kidney (HEK-293) cells. Cav3.2 transfected HEK 293 cells were treated with 50 μM of test compounds and compared to the control group (none pretreated HEK 293 cells).
# (§1) ND7/23 cells are derived from the fusion of mouse neuroblastoma and rat dorsal root ganglion cells, which generates a more homogeneous sensory neuron-like cell population. ND7/23 cells were purchased from Sigma-Aldrich (RRID:CVCL_4259). Culture and differentiation of ND7/23 cells was performed as previously described. Briefly, ND7/23 cells were cultured in DMEM/F12 culture media (Millipore, Cat. #DF-041-B), supplemented with 0.5% fetal bovine serum (Invitrogen, Cat. #10437010), db-cAMP (1 mM, Sigma-Aldrich, Cat. #D0627), and nerve growth factor (NGF, 50 ng/mL, Sigma-Aldrich, Ca. #N2513). To remove any proliferating cells, cultures were treated with uridine (20 μM, Sigma-Aldrich, Cat. #U3003) and fluorodeoxyuridine (20 μM, Sigma-Aldrich, Cat. #F0503). Cells were maintained in differentiation media without uridine and fluorodeoxyuridin after induction of differentiation. ND7/23 cells were maintained in differentiation media for ≤6 days. HEK 293 cells that were stabled transfected with the human Cav3.2 and Cav3.3 channel subunits were a gift of Dr. E. Perez-Reyes (University of Virginia). Cav3.2 (or Cav3.3)-stabled transfected HEK 293 cells were culture in DMEM/F12 culture media, supplemented with 5% fetal bovine serum, 50 U/mL penicillin and 50 μg/mL streptomycin. ND7/23 and HEK 293 cells were grown in an incubator at 37° C. in the presence of 5% CO2/95% air humidified atmosphere. Cells passaged less than 20 times were used in this work. Cells were grown in poly-D-lysine-coated glass coverslips for electrophysiological recordings.
# Whole cell recordings were performed as previously described. A Nikon Eclipse Ti inverted microscope equipped with Hoffman optics and epifluorescence filters was used to visualize individual cells. Recordings were performed at room temperature (22-24° C.) using glass electrodes made from thin wall borosilicate glass (3-5 MΩ). For electrophysiological recordings of inward Ca^2+ currents, outward K^+ currents were eliminated by equimolar substitution of K^+ with Cs^+ in the pipette solution, whereas inward Na^+ currents were eliminated by the use of TEA ions in the external solution, which are unable to go through voltage-gated Na^+ channels. The pipette solution consisted of (in mM) CsCl (120), MgCl2(2), HEPES (10), EGTA (10), ATP (1), and GTP (0.1), pH 7.4 with CsOH. The composition of the normal external saline used for measurements of Ca^2+ currents was (in mM): tetraethylammonium chloride (TEACl, 145), CaCl2 (10), MgCl2(1), HEPES (10), and glucose (5), pH 7.4 adjusted with CsOH. Ca^2+ currents were generated by applying a 200-500 ms-depolarizing step to various potentials from a holding potential of −100 mV. The external solution used to measure Na^+ currents contained (in mM) NaCl (145), KCl (5.3), CaCl2 (0.5), MgCl2 (5.7), HEPES (13), and glucose (5), pH 7.4 adjusted with KOH. The composition of the CsCl-pipette solution used to record Na^+ currents was the same describe above. Na^+ currents were generated by applying a 20 ms-depolarizing step to various potentials from a holding potential of −100 mV. To assess drug-evoked changes on specific ionic conductances, current amplitudes were expressed as current densities as previously reported. […]
# [2] = system: voltage-activated Na^+ channels; assay: Whole-cell recording of Na+ currents in differentiated ND7/23 cells; format: cell-based, mouse neuroblastoma and rat dorsal root ganglion cells; conditions: 50 μM
# Procedure: as §1
# Whole cell recordings were performed as previously described. A Nikon Eclipse Ti inverted microscope equipped with Hoffman optics and epifluorescence filters was used to visualize individual cells. Recordings were performed at room temperature (22-24° C.) using glass electrodes made from thin wall borosilicate glass (3-5 MΩ). For electrophysiological recordings of inward Ca^2+ currents, outward K^+ currents were eliminated by equimolar substitution of K^+ with Cs^+ in the pipette solution, whereas inward Na^+ currents were eliminated by the use of TEA ions in the external solution, which are unable to go through voltage-gated Na^+ channels. […] To assess drug-evoked changes on specific ionic conductances, current amplitudes were expressed as current densities as previously reported. […] Cell capacitance was determined by integrating the transient current evoked by a 10-mV voltage step from a holding potential of −60 mV.
# A MULTICLAMP 700A amplifier and PCLAMP software (Axon Instruments) was used to deliver voltage commands and to perform data acquisition and analysis. […] Only cells with stable seals and series resistance (≤10 MΩ) were analyzed. […]
# [3] = system: differentiated ND7/23 cells; assay: Intracellular calcium signals in differentiated ND7/23 cells stimulated with KCl or ionomycin; format: cell-based, mouse neuroblastoma and rat dorsal root ganglion cells; conditions: 50 μM pre-treatment
# Procedure: FIGS. 14A-C. Effect of RHB121 on the intracellular calcium signals generated in differentiated ND7/23 cells following stimulation with 30 mM extracellular K+ ions or the calcium ionophore ionomycin (10 μM). FIG. 14A. […] FIG. 14B. […] FIG. 14C. Relative changes in the intracellular calcium signal generated in differentiated ND7/23 cells by 30 mM KCl or Ionomycin (10 μM) in control or RHB121-treated cells. Control groups were arbitrarily assigned a 100% intracellular calcium signal.
# To assess the effect of RHB121 on intracellular calcium signals, differentiated ND7/23 cells with a high potassium concentration (30 mM KCl) were simulated. The effect of the calcium ionophore Ionomycin, which also can increase intracellular calcium by a different mechanism, independently of T-type Ca^2+ channel activation, was also tested. Stimulation of differentiated ND7/23 with 30 mM KCl external solution caused a small increase in the intracellular calcium signal (FIG. 14A).
Effect on T-type Ca2+ current density (human Cav3.2; HEK 293-Cav3.2 cells),Effect on activation time constant (τ) (human Cav3.2; 10 μM),Shift of the steady-state inactivation curve (human Cav3.2; 10 μM),"Effect on whole cell capacitance (human Cav3.2; HEK 293-Cav3.2 cells, listed as RHB 121)","inhibition at 50 µM (human Cav3.2; HEK293, 50 μM, Cav3.2 transfected HEK 293 cells, read-out: Inhibition of calcium currents on T-type calcium channels)",Concentration dependence of the inhibition of T-type Ca2+ currents (human Cav3.2; HEK 293-Cav3.2 cells),"Effect on T-type Ca2+ current density (human Cav3.2; HEK 293-Cav3.2 cells, listed as RHB-95)",Structure (SMILES),Effect on cell viability (XTT assay) [1],Effect on whole cell capacitance (human Cav3.2; HEK 293-Cav3.2 cells),Effect on Na+ current density [2],Effect on intracellular calcium signal evoked with 30 mM KCl [3],Effect on intracellular calcium signal evoked with Ionomycin (10 μM) [3]
significant reduction,does not alter; also recorded: no effect,leftward shift,no significant changes,~100%,concentration-dependent,–,"O=C1C=C(NC(=O)c2cccc(OC(F)(F)F)c2)CC(C(F)(F)F)C1 (stereo not drawn) [RHB121, N-(3-oxo-5-(trifluoromethyl)cyclohex-1-en-1-yl)-3-(trifluoromethoxy)benzamide]",do not affect the cell viability; also recorded: no effect on the cell viability,no effect on cell capacitance,does not affect; also recorded: no effect on the Na^+ current densities,complete inhibition; also recorded: significant reduction,still evoked a significant response; also recorded: significant reduction
significant reduction,–,–,–,–,–,No inhibitory effect,O=C1C=C(NC(=O)c2cccc(C(F)(F)F)c2)CC(C(F)(F)F)C1 (stereo not drawn) [RHB95],do not affect the cell viability; also recorded: no effect on the cell viability,no significant changes; also recorded: no effect on cell capacitance,–,–,–

Structure (SMILES),Effect on T-type Ca2+ current density (human Cav3.2; HEK 293-Cav3.2 cells),Effect on activation time constant (τ) (human Cav3.2; 10 μM),Shift of the steady-state inactivation curve (human Cav3.2; 10 μM),"Effect on whole cell capacitance (human Cav3.2; HEK 293-Cav3.2 cells, listed as RHB 121)","inhibition at 50 µM (human Cav3.2; HEK293, 50 μM, Cav3.2 transfected HEK 293 cells, read-out: Inhibition of calcium currents on T-type calcium channels)",Concentration dependence of the inhibition of T-type Ca2+ currents (human Cav3.2; HEK 293-Cav3.2 cells),"Effect on T-type Ca2+ current density (human Cav3.2; HEK 293-Cav3.2 cells, listed as RHB-95)",Effect on cell viability (XTT assay) [1],Effect on whole cell capacitance (human Cav3.2; HEK 293-Cav3.2 cells),Effect on Na+ current density [2],Effect on intracellular calcium signal evoked with 30 mM KCl [3],Effect on intracellular calcium signal evoked with Ionomycin (10 μM) [3]
Cc1cc(C)cc(C(=O)NC2=CC(=O)CC(C(F)(F)F)C2)c1 (stereo not drawn) [RHB62],"significant reduction; also recorded: reduction in the Ca^+2 current, with lower potency than RHB-77",–,–,–,–,–,–,do not affect the cell viability; also recorded: no effect on the cell viability,no significant changes; also recorded: no effect on cell capacitance,–,–,–
